Source: paper PMC4257840 (Journal of Medicinal Chemistry, 2014)
Read-outs that look alike come from different tables or passages of the source.

What was measured:
Der p 1 = molecular target: T1, Der p 1 (Dermatophagoides pteronyssinus, UniProt P08176); test: biochemical; format: biochemical
T1 sequence (P08176 99-320): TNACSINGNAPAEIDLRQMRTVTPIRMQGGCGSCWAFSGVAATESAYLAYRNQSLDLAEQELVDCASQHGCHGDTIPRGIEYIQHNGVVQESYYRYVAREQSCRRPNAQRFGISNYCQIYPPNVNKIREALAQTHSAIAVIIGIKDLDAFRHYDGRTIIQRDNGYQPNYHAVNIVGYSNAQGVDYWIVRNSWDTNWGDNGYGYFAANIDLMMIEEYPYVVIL
Protocol: Automated screening of inhibitory activity toward group 1 HDM peptidase allergens was performed as described elsewhere[25],[43] with the minor modification that Der p 1 or Der f 1 were incubated with inhibitors for 20 min prior to initiation of reactions by addition of substrate. In initial screening, the activity of each compound was measured using a series of 10 doubling dilutions from a starting concentration of 50 μM. […] Assays were performed in triplicate for calculation of mean ± SE IC50 values.

human liver Cat B = human liver Cat B (Homo sapiens, UniProt P07858); test: Cathepsin B inhibition assay; details: for IC50: read-out: Cat B IC50, mean ± SE
Protocol: Inhibition of Cat B was measured as described with modifications.[25] […] Progress curves were followed at 30 °C by detection of fluorescence at 320/420 nm (excitation/emission).
In all cases, for reactions involving inhibitors, the amount of reaction buffer was adjusted to 60 μL, the inhibitor added as a 10 μL aliquot, and incubated for 20 min with the enzyme prior to reaction start.

[1] = Measurement of LogD7.4 (n-octanol/PBS shake); format: physicochemical; details: single determination, n-octanol/PBS pH 7.4; read-out: Log D7.4
Protocol: Appendix 4. Measurement of LogD7.4
Test compounds (~1 mg) were weighed into 2 mL HPLC vials. n- Octanol (0.7 mL), pre-saturated with 10 mM phosphate buffered saline pH7.4 (PBS), was added to each vial followed b y PBS (0. 7 mL), which had been pre-saturat ed with n-octanol. The mixtures were shaken for 90 min and then centrifuged for 10 min at 4,000 rpm. The upper organic l ayer (0.2 m L) and the aqueous la yer (0.5 mL) were removed from each vial and anal yz e d b y LC -MS. Mass spect ral anal ysis was used to confirm peak identity whilst the concentration of compound was assessed by a diode arra y det ecto r. The logD for each compound was calculated b y takin g th e lo g of its concentration ratio between the oct anol and aqueous la ye r s.Given the robustness of the assa y and the fact that the info rmation was us ed onl y for gen eral guid ance, thes e measu rements were based on singlicate det erminations.

[2] = system: nonsensitized rats challenged with a natural mixture of HDM allergens; details: i.t. aerosol typically 60-360 min prior to allergen challenge, unsensitised BN rats

`Cc1n[nH]c(C)c1C(=O)N[C@H](C(=O)N[C@@H](C)C(=O)NC(C(=O)C(=O)NCc1ccccc1)C(C)C)C(C)(C)C` (mixture of isomers) [Compound 30] showed an IC50 (Der p 1) of 67 ± 10 nM.
`CC(C)C(NC(=O)[C@H](C)NC(=O)[C@H](Cc1ccccc1)NC(=O)c1ccccc1)C(=O)C(=O)NC1CCOCC1` (mixture of isomers) [Compound 33] gave an IC50 (human liver Cat B) of 311 ± 6 nM and an IC50 (Der p 1; mean ± SE) of 55 ± 4 nM.
In the case of `CCCC[C@H](NC(=O)[C@H](C)NC(=O)[C@H](Cc1ccccc1)NC(=O)c1ccccc1)C(=O)CN1CCCC1` [Compound 3], the IC50 (Der p 1; mean ± SE) is reported as 65 nM.
Molecule `CCCC[C@H](NC(=O)[C@H](C)NC(=O)[C@H](Cc1ccccc1)NC(=O)c1ccccc1)C(=O)C(=O)N1CCCC1` [Compound 4] has an IC50 (Der p 1; mean ± SE) of 997 nM.
In the case of `CC(C)[C@H](NC(=O)[C@H](C)NC(=O)[C@H](Cc1ccccc1)NC(=O)c1ccccc1)C(=O)C(=O)NCc1ccccc1` [Compound 20], the IC50 (human liver Cat B) is reported as 50 ± 5 nM and the IC50 (Der p 1; mean ± SE) is reported as 12 ± 2 nM.
Molecule `C[C@H](NC(=O)[C@H](Cc1ccccc1)NC(=O)c1ccccc1)C(=O)N[C@H](C(=O)C(=O)NC1CCCCC1)C(C)(C)C` [Compound 21] has an IC50 (Der p 1; mean ± SE) of 9170 ± 880 nM.
`CC(C)[C@H](NC(=O)[C@H](C)NC(=O)[C@@H](NC(=O)c1ccccc1)C(C)(C)c1ccccc1)C(=O)C(=O)NCc1ccccc1` [Compound 23] gave an IC50 (human liver Cat B) of 446 ± 11 nM and an IC50 (Der p 1; mean ± SE) of 42 ± 6 nM.
`CCC[C@H](NC(=O)[C@H](Cc1ccccc1)NC(=O)c1ccccc1)C(=O)N[C@H](C(=O)C(=O)NC1CCCCC1)C(C)C` [Compound 24] gave an IC50 (human liver Cat B) of 67 ± 1 nM and an IC50 (Der p 1; mean ± SE) of 164 ± 24 nM.
With `CC(C)[C@H](NC(=O)[C@H](C)NC(=O)[C@@H](NC(=O)c1cccc2ccccc12)C(C)(C)C)C(=O)C(=O)NC1CCCCC1` [Compound 25] the IC50 (human liver Cat B) was 721 ± 35 nM, the logD at 1.5 h [1] was 4.3 and the IC50 (Der p 1; mean ± SE) was 20 ± 3 nM.
Work on `CC(C)[C@H](NC(=O)[C@H](C)NC(=O)[C@@H](NC(=O)c1ccnc2ccccc12)C(C)(C)C)C(=O)C(=O)NC1CCCCC1` [Compound 26] yielded an IC50 (human liver Cat B) of 628 ± 47 nM, a logD at 1.5 h [1] of 3.5 and an IC50 (Der p 1; mean ± SE) of 13 ± 2 nM.
In the case of `CC(C)[C@H](NC(=O)[C@H](C)NC(=O)[C@@H](NC(=O)c1ccnc2ccccc12)C(C)(C)C)C(=O)C(=O)NCc1ccccc1` [Compound 27, Quinoline-4-carboxylic Acid {(S)-1-[(S)-1-((S)-1-Benzylaminooxalyl-2-methyl-propylcarbamoyl)-ethylcarbamoyl]-2,2-dimethyl-propyl}-amide], the IC50 (human liver Cat B) is reported as 3400 ± 187 nM, the “duration of protection: trend of inhibition of eosinophil recruitment with increasing pre-treatment interval” value [2] is reported as “rise to a peak” and the logD at 1.5 h [1] is reported as 3.4. For the same molecule, the IC50 (Der p 1; mean ± SE) was 18 ± 1 nM.
With `CC(C)[C@H](NC(=O)[C@H](C)NC(=O)[C@@H](NC(=O)C1CCN(C)CC1)C(C)(C)C)C(=O)C(=O)NCc1ccccc1` [Compound 31] the IC50 (human liver Cat B) was 283 ± 50 nM and the IC50 (Der p 1; mean ± SE) was 19 ± 2 nM.
Work on `CC(C)[C@H](NC(=O)[C@H](C)NC(=O)[C@H](Cc1ccccc1)NC(=O)c1ccccc1)C(=O)C(=O)NC1CCN(C)CC1` [Compound 34] yielded an IC50 (Der p 1; mean ± SE) of 115 ± 14 nM.
For `CC(C)[C@H](NC(=O)[C@H](C)NC(=O)[C@@H](NC(=O)c1ccccc1)C(C)(C)C)C(=O)C(N)=O` [Compound 36], the IC50 (human liver Cat B) was 20 ± 3 nM, the logD at 1.5 h [1] was 1.7 and the IC50 (Der p 1) was 6 ± 2 nM.
Molecule `CNC(=O)C(=O)[C@@H](NC(=O)[C@H](C)NC(=O)[C@@H](NC(=O)c1ccccc1)C(C)(C)C)C(C)C` [Compound 37] has an IC50 (human liver Cat B) of 494 ± 20 nM and an IC50 (Der p 1; mean ± SE) of 24 ± 5 nM.
For `CC(C)[C@H](NC(=O)[C@H](C)NC(=O)[C@@H](NC(=O)c1ccccc1)C(C)(C)C)C(=O)C(=O)NCc1ccc(S(N)(=O)=O)cc1` [Compound 39], the IC50 (human liver Cat B) was 984 ± 164 nM and the IC50 (Der p 1; mean ± SE) was 6 ± 1 nM.
For `CC(C)[C@H](NC(=O)[C@H](C)NC(=O)[C@@H](NC(=O)c1ccccc1)C(C)(C)C)C(=O)C(=O)NCc1ccc(C(F)(F)F)cc1` [Compound 40], the IC50 (Der p 1; mean ± SE) was 47 ± 7 nM.
Molecule `CC(C)[C@H](NC(=O)[C@H](C)NC(=O)[C@@H](NC(=O)c1ccccc1)C(C)(C)C)C(=O)C(=O)NCc1ccc(CN(C)C)cc1` [Compound 41] has an IC50 (human liver Cat B) of 242 ± 31 nM and an IC50 (Der p 1; mean ± SE) of 8 ± 1 nM.
`CC(C)[C@H](NC(=O)[C@H](C)NC(=O)[C@@H](NC(=O)c1ccccc1)C(C)(C)C)C(=O)C(=O)N[C@H](C)c1ccccc1` [Compound 42] gave an IC50 (human liver Cat B) of 459 ± 28 nM and an IC50 (Der p 1; mean ± SE) of 17 ± 2 nM.
In the case of `CC(C)[C@H](NC(=O)[C@H](C)NC(=O)[C@@H](NC(=O)c1ccccc1)C(C)(C)C)C(=O)C(=O)N[C@@H](C)c1ccccc1` [Compound 43], the IC50 (Der p 1; mean ± SE) is reported as 117 ± 34 nM.
`CC(C)[C@H](NC(=O)[C@H](C)NC(=O)[C@@H](NC(=O)c1ccccc1)C(C)(C)C)C(=O)C(=O)NCc1cn[nH]c1` [Compound 44] gave an IC50 (human liver Cat B) of 367 ± 34 nM and an IC50 (Der p 1) of 11 ± 2 nM.
For `CC(C)[C@H](NC(=O)[C@H](C)NC(=O)[C@H](Cc1ccccc1)NC(=O)c1ccccc1)C(=O)C(=O)NCC(=O)N1CCCCC1` [Compound 46], the IC50 (human liver Cat B) was 81 ± 6 nM, the logD at 1.5 h [1] was 2.6 and the IC50 (Der p 1) was 14 ± 3 nM.
In the case of `CC(C)[C@H](NC(=O)[C@H](C)NC(=O)[C@@H](NC(=O)c1ccccc1)C(C)(C)C)C(=O)C(=O)NCC(=O)N1CCN(C)CC1` [Compound 48], the “inhibition of Cat B” value (human liver Cat B; at 2.5 μM) is reported as “no significant inhibition”, the IC50 (human liver Cat B) is reported as greater than 2500 nM and the logD at 1.5 h [1] is reported as 1. For the same molecule, the IC50 (Der p 1; mean ± SE) was 14 ± 2 nM.
`CC(C)[C@H](NC(=O)[C@H](C)NC(=O)[C@H](Cc1ccccc1)NC(=O)c1ccccc1)C(=O)C(=O)NCC(=O)N1CCN(C(C)C)CC1` [Compound 49] showed an IC50 (human liver Cat B) greater than 2500 nM, a logD at 1.5 h [1] of 1.6 and an IC50 (Der p 1; mean ± SE) of 4 ± 1 nM.
Work on `CC(C)[C@H](NC(=O)[C@H](C)NC(=O)[C@H](Cc1ccccc1)NC(=O)c1ccccc1)C(=O)C(=O)N[C@@H](C)C(=O)N1CCN(C)CC1` [Compound 50] yielded an IC50 (human liver Cat B) greater than 2500 nM and an IC50 (Der p 1; mean ± SE) of 10 ± 1 nM.
Work on `CC(C)[C@H](NC(=O)[C@H](C)NC(=O)[C@@H](NC(=O)c1ccccc1)C(C)(C)C)C(=O)C(=O)NCC(=O)N1CCc2ccccc2C1` [Compound 51] yielded an IC50 (human liver Cat B) of 511 ± 88 nM, a logD at 1.5 h [1] of 3.5 and an IC50 (Der p 1) of 6 nM.
In the case of `CC(C)[C@H](NC(=O)[C@H](C)NC(=O)[C@@H](NC(=O)c1ccccc1)C12CC3CC(CC(C3)C1)C2)C(=O)C(=O)NCC(=O)N1CCN(C)CC1` [Compound 54], the IC50 (human liver Cat B) is reported as greater than 2500 nM, the “duration of protection: trend of inhibition of eosinophil recruitment with increasing pre-treatment interval” value [2] is reported as “waned” and the IC50 (Der p 1; mean ± SE) is reported as 5 nM.
Work on `CC(C)[C@H](NC(=O)[C@H](C)NC(=O)[C@@H](NC(=O)c1ccnc2ccccc12)C(C)(C)C)C(=O)C(=O)NCC(=O)N1CCN(C(C)C)CC1` [Compound 55] yielded an IC50 (human liver Cat B) greater than 2500 nM and an IC50 (Der p 1; mean ± SE) of 3 nM.
`CC(C)[C@H](NC(=O)[C@H](C)NC(=O)[C@@H](N1Cc2ccccc2C1=O)C(C)(C)C)C(=O)C(=O)NCc1ccc(S(N)(=O)=O)cc1` [Compound 56] gave an IC50 (human liver Cat B) of 3050 ± 1130 nM and an IC50 (Der p 1; mean ± SE) of 3 nM.
For `CNC(=O)c1ccc(CNC(=O)C(=O)[C@@H](NC(=O)[C@H](C)NC(=O)[C@@H](N2Cc3ccccc3C2=O)C(C)(C)C)C(C)C)cc1` [Compound 57], the IC50 (human liver Cat B) was 3570 ± 850 nM, the “duration of protection: trend of inhibition of eosinophil recruitment with increasing pre-treatment interval” value [2] was “rise to a peak” and the IC50 (Der p 1; mean ± SE) was 4 nM.
`CC(C)[C@H](NC(=O)[C@H](C)NC(=O)[C@@H](N1Cc2ccccc2C1=O)C(C)(C)C)C(=O)C(=O)NCc1ccc(CN(C)C)cc1` [Compound 58] showed an IC50 (human liver Cat B) of 2850 ± 662 nM and an IC50 (Der p 1; mean ± SE) of 4 nM.
`CC(C)[C@H](NC(=O)[C@H](C)NC(=O)[C@@H](NC(=O)c1cccc2ccccc12)C(C)(C)C)C(=O)C(=O)NCc1ccc(S(N)(=O)=O)cc1` [Compound 59] gave an IC50 (human liver Cat B) of 532 ± 136 nM and an IC50 (Der p 1; mean ± SE) of 4 nM.
